According to PubChem BioAssay (NCI):
“And” between values parts separate entries of the source, which are not always exact repeats. Equal values may be shown once.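 Growth conditions: 96-well plates. Treatment: test compound, 48 hours, 5 concentrations. Analysis: linear interpolation between bracketing concentrations; unreached endpoints set to highest concentration. GI50 marks 50% less growth. TGI denotes the concentration required for complete inhibition of growth.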

Columns and labels:
Assay in all cases: NCI-60 cell line screen, 48 h
CAKI-1 renal = system: CAKI-1 renal
HOP-62 NSCLC = system: HOP-62 NSCLC
KM12 colon = system: KM12 colon
LOX IMVI melanoma = system: LOX IMVI melanoma
OVCAR-3 ovarian = system: OVCAR-3 ovarian
RXF 393 renal = system: RXF 393 renal
SF-268 CNS = system: SF-268 CNS
SNB-19 CNS = system: SNB-19 CNS
U251 CNS = system: U251 CNS
UACC-62 melanoma = system: UACC-62 melanoma

SMILES | GI50 (CAKI-1 renal) [µM] | TGI (CAKI-1 renal) | GI50 (HOP-62 NSCLC) [µM] | TGI (HOP-62 NSCLC) | GI50 (KM12 colon) [µM] | TGI (KM12 colon) | GI50 (LOX IMVI melanoma) [µM] | TGI (LOX IMVI melanoma) | GI50 (OVCAR-3 ovarian) [µM] | TGI (OVCAR-3 ovarian) | GI50 (RXF 393 renal) [µM] | TGI (RXF 393 renal) | GI50 (SF-268 CNS) [µM] | TGI (SF-268 CNS) | TGI (SNB-19 CNS) | TGI (U251 CNS) | GI50 (UACC-62 melanoma) [µM] | TGI (UACC-62 melanoma) [µM] | GI50 (SNB-19 CNS) [µM] | GI50 (U251 CNS) [µM]
COc1cc(/C=C/C(=O)CC(=O)/C=C/c2cc(OC)c(O)c(OC)c2)cc(OC)c1O | 21.1 | 25 µM and > 100 µM | 19.6 | 25 µM and > 100 µM | 13.5 | 15.4 µM and 31.1 µM | 15.8 | 25 µM and 66.3 µM | 18.6 | 17.3 µM and > 100 µM | 2.63 | 7.3 µM and 16.1 µM | 9.06 | 15.4 µM and 41.2 µM | 25 µM and > 100 µM | 25 µM and 36.1 µM | 5.51 | – | – | –
O=c1[nH]c2ccccc2c(O)c1/C=N/C(=S)NC1CCCCC1 | – | > 100 µM | – | > 100 µM | – | > 100 µM | – | > 100 µM | – | > 100 µM | – | > 100 µM | – | > 100 µM | > 100 µM | > 100 µM | – | > 100 | – | –
NC1=NC(SCc2ccccc2CCl)c2ncn(Cc3ccccc3CCl)c2N1 (stereo unspecified) | 1.77 | 3.82 µM | 1.53 | 3.16 µM | 1.74 | 3.6 µM | 1.35 | 2.92 µM | 1.32 | 2.99 µM | 1.48 | 2.85 µM | 2.01 | 10.2 µM | 23.2 µM | 2.82 µM | 2.54 | 10.4 | 4.83 | 1.45
COC(=O)CC1(O)C=CC(=O)C=C1 | – | 11.6 µM | – | 18.1 µM | – | 3.46 µM | – | 6.76 µM | – | 13.7 µM | – | 17.9 µM | – | 14.8 µM | 21.3 µM | 18.5 µM | – | 5 | – | –
NC(N)=NC(N)=Nc1ccc(C(=O)O)cc1 | – | > 100 µM | – | > 100 µM | – | > 100 µM | – | > 100 µM | – | > 100 µM | – | > 100 µM | – | > 100 µM | > 100 µM | > 100 µM | – | > 100 | – | –
CCN(CC)CCCNCc1cc(-c2ccccc2)nc2cc(Cl)ccc12 | 2.35 | 11.2 µM | 5.54 | 19.3 µM | 2.09 | 4.82 µM | 1.87 | 4.27 µM | 7.58 | 20.5 µM | 2.91 | 7.2 µM | 3.05 | 12.9 µM | 25.6 µM | 6.67 µM | 1.93 | 3.59 | 10.2 | 2.39
CC(C)(C)c1ccc(C2CC(=O)C3=C(C2)Nc2ccccc2N(C(=O)c2ccccc2Cl)C3c2ccc(F)cc2)cc1 (stereo unspecified) | > 100 | > 100 µM | > 100 | > 100 µM | > 100 | > 100 µM | > 100 | > 100 µM | > 100 | > 100 µM | > 100 | > 100 µM | > 100 | > 100 µM | > 100 µM | > 100 µM | > 100 | > 100 | > 100 | > 100
Cc1cc(=O)[nH]c(N/N=C/c2ccccc2O)n1 | 5.19 | > 100 µM | 19 | > 100 µM | 18.4 | > 100 µM | 8.02 | > 100 µM | 4.15 | > 100 µM | 12.8 | 92.6 µM | 7.75 | > 100 µM | > 100 µM | > 100 µM | 9.92 | 51 | 24.5 | 6.01
Cc1nn(C)c2ncnc(N/N=C/c3cccc(O)c3O)c12 | 1.31 | 16.5 µM | 1.08 | 15.1 µM | 0.392 | > 100 µM | 0.238 | 4.05 µM | 0.356 | > 100 µM | 0.513 | > 27.7 µM | 0.342 | 20.4 µM | > 48.4 µM | > 100 µM | 1.69 | 5.98 | 0.664 | 0.513
COc1cc(OC)c2c(=O)cc(-c3ccccc3OCc3ccccc3)oc2c1OC | 3.21 | 24.2 µM | 10.7 | 44.4 µM | 3.25 | 16.2 µM | 10.2 | > 100 µM | 4.15 | 16.5 µM | > 100 | > 100 µM | 18.7 | 73.7 µM | > 100 µM | > 100 µM | 4.14 | 17.7 | 41.7 | 9.59
CC1=NN(c2ccccc2)C(=O)C12[C@H](c1ccccc1)C2(C#N)C#N (stereo partly specified) | – | 16.3 µM | – | 31.1 µM | – | 25.1 µM | – | 4.63 µM | – | 19.5 µM | – | 14.6 µM | – | 20.6 µM | 29.5 µM | 29.6 µM | – | 12.4 | – | –
CC(=O)c1c[nH]c2ccc(-c3ccnc(Nc4ccc(NC(=O)C5CCCC5)c(CN5CCOCC5)c4)n3)cc12 | 0.0168 | 0.561 µM | 0.0403 | 3.52 µM | 0.0258 | 0.141 µM | 0.0132 | 0.0479 µM | 0.0267 | 0.678 µM | 0.0114 | 0.036 µM | 0.033 | 0.159 µM | 7.96 µM | – | 0.0205 | 0.0481 | 0.041 | 0.0316
COc1cc(C2c3cc4c(cc3OC(O)C2C)OCO4)cc(OC)c1OC (stereo unspecified) | – | 37.4 µM | – | > 100 µM | – | 27.2 µM | – | > 100 µM | – | 5.25 µM | – | > 100 µM | – | > 58.9 µM | > 100 µM | > 40.1 µM | – | > 100 | – | –
COc1cc(F)c(F)cc1C(=O)c1cnc(NC2CCN(S(C)(=O)=O)CC2)nc1N | 3.79 | > 25 µM | 6.17 | > 22.2 µM | 3.12 | > 22.4 µM | 3.16 | > 20.7 µM | 4.48 | 15.7 µM | 3.01 | 7.18 µM | 5.65 | 20 µM | > 25 µM | 24.8 µM | 3.13 | 7.63 | 2.32 | 2.42
